{
  "source": "patent US8198279B2",
  "about": "“Pyrido[2,3-b]pyrazin-8-substituted compounds and their use” (Institute of Cancer Research: Royal Cancer Hospital (The), priority 2007, dated 2012)",
  "note": "Where “and” joins values, the source holds several entries; their conditions need not be identical. Identical values can stand only once.",
  "data": [
    {"target": "T1, B-RAF (Homo sapiens, UniProt P15056, V600E)", "T1 construct": "made in house", "T1 sequence (P15056 whole entry V600E)": "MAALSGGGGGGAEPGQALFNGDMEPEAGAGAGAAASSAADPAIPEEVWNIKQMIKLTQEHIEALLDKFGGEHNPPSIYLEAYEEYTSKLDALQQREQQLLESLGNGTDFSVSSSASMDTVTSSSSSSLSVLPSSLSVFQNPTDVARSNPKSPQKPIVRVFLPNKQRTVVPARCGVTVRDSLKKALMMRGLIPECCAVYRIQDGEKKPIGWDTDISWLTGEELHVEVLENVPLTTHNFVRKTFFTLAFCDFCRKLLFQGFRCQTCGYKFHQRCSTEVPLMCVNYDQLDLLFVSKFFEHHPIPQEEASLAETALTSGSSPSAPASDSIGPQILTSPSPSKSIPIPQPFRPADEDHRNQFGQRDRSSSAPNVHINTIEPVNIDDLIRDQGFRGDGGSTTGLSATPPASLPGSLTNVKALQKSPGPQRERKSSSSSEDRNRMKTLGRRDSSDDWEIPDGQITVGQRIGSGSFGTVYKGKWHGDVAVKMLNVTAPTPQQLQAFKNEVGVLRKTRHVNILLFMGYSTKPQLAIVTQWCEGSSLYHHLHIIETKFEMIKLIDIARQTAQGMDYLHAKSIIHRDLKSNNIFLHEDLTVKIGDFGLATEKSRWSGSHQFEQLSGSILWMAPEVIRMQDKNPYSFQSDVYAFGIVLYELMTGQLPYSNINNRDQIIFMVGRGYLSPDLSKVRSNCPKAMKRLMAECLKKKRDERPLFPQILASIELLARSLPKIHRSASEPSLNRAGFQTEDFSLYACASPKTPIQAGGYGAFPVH", "test": "DELFIA Kinase Assay", "format": "biochemical", "settings": "100 μM ATP, GST-MEK substrate", "procedure": "Biological Methods—DELFIA Kinase Assay\nCompounds were assessed by a kinase assay performed according to the following protocol.\nDKB1 (DKB with B-RAF and MEK Protein):\nCombine 4950 μL of DKB and 50 μL of 2.5 mg/ml GST-MEK stock (to give […] of MEK per 40 μL). Then add 22.5 μL of B-RAF to give ˜0.2 μL of B-RAF per 40 μL.\n100 mM stock, dilute to 500 μM to give 100 μM final concentration in assay.\n• 1. Preblock wells with 5% milk in TBS for 1 hour. • 2. Wash wells with 3× with 200 μL TBS. • 3. Plate out 40 μL of DKB1 for all inhibitors (test compounds), DMSO control, and optionally other control compounds. • 4. Plate out 40 μL of DKB2 for BO and EV wells. • 5. Add inhibitors (test compounds) at 0.5 μL per well according to desired plate layout. • 6. Add 0.5 μL DMSO to vehicle control wells. • 7. Add 2 μL of B-RAF to BO and EV wells. • 8. Pre-incubate with inhibitors (test compounds) for 10 minutes at room temperature with shaking. • 9. Add 10 μL of 500 μM ATP stock, in DKB, to give 100 μM assay concentration. • 10. Seal plates with TopSeal and incubate at room temperature with shaking for 45 minutes. • 11. Wash plates 3× with 200 μL 0.1% Tween20/Water to terminate reaction. • 12. Add 50 μL per well of antibody mix and incubate for 1 hour at room temperature with shaking. • 13. Wash plates 3× with 200 μL 0.1% Tween20/Water. • 14. Add 100 μL DELFIA enhancement solution per well, cover in foil, and incubate at room temperature for 30 minutes with shaking. • 15. Read on Victor using Europium protocol.\nValues for the blank (Empty Vector) are subtracted from all values. The DMSO controls are set as 100% activity and assay points (the response) are calculated as a percentage of the DMSO control. Data are plotted using Graphpad Prism software and a non-linear regression line is calculated using a variable slope sigmoidal dose-response equation (Y=Bottom+(Top−Bottom)/(1+10^((LogEC50−X)*HillSlope)) where X is the logarithm of concentration. Y is the response). The IC50 generated by this procedure is the concentration of the drug that produces a percentage control fluorescence value midway between the saturation, and zero-effect plateaus. Three independent assays are usually performed and the mean IC50 is reported.", "values": [
      {"compound": "O=C(Nc1cccc(Oc2ccnc3[nH]c(=O)cnc23)c1)Nc1cc(C(F)(F)F)ccc1F", "note": "[AA-007, 1-(2-fluoro-5-(trifluoromethyl)phenyl)-3-(3-(3-oxo-3,4-dihydropyrido[2,3-b]pyrazin-8-yloxy)phenyl)urea]", "IC50": "< 100 nM"},
      {"compound": "Cc1nc2nccc(Oc3ccc(NC(=O)Nc4cc(C(C)(C)C)nn4-c4ccccc4)c4ccccc34)c2[nH]c1=O", "note": "[AA-035, 1-(3-tert-butyl-1-phenyl-1H-pyrazol-5-yl)-3-(4-(3-methyl-2-oxo-1,2-dihydropyrido[2,3-b]pyrazin-8-yloxy)naphthalen-1-yl)urea]", "IC50": "100 to 1000 nM"},
      {"compound": "O=C(Nc1cc(C(F)(F)F)ccc1F)Nc1ccc(Oc2ccnc3ncc(=O)[nH]c23)c2ccccc12", "note": "[AA-038, 1-(2-fluoro-5-(trifluoromethyl)phenyl)-3-(4-(2-oxo-1,2-dihydropyrido[2,3-b]pyrazin-8-yloxy)naphthalen-1-yl)urea]", "IC50": "< 1000 nM and 100 to 1000 nM"},
      {"compound": "Cc1nc2nccc(Oc3ccc(NC(=O)Nc4cc(C(F)(F)F)ccc4F)c4ccccc34)c2[nH]c1=O", "note": "[AA-039, 1-(2-fluoro-5-(trifluoromethyl)phenyl)-3-(4-(3-methyl-2-oxo-1,2-dihydropyrido[2,3-b]pyrazin-8-yloxy)naphthalen-1-yl)urea]", "IC50": "< 1000 nM and 100 to 1000 nM"},
      {"compound": "Cc1ccc(-n2nc(C(C)(C)C)cc2NC(=O)Nc2ccc(Oc3ccnc4ncc(=O)[nH]c34)cc2)cc1", "note": "[AA-040, 1-(3-tert-butyl-1-p-tolyl-1H-pyrazol-5-yl)-3-(4-(2-oxo-1,2-dihydropyrido[2,3-b]pyrazin-8-yloxy)phenyl)urea]", "IC50": "100 to 1000 nM"},
      {"compound": "Cc1nc2nccc(Oc3ccc(NC(=O)Nc4cc(C(C)(C)C)nn4-c4ccccc4)c(F)c3)c2[nH]c1=O", "note": "[AA-041, 1-(3-Tert-butyl-1-phenyl-1H-pyrazol-5-yl)-3-(2-fluoro-4-(3-methyl-2-oxo-1,2-dihydropyrido[2,3-b]pyrazin-8-yloxy)phenyl)urea]", "IC50": "100 to 1000 nM"},
      {"compound": "O=C(Nc1ccc(Oc2ccnc3ncc(=O)[nH]c23)cc1)Nc1ccc(Cl)c(C(F)(F)F)c1", "note": "[AA-042, 1-(4-chloro-3-(trifluoromethyl)phenyl)-3-(4-(2-oxo-1,2-dihydropyrido[2,3-b]pyrazin-8-yloxy)phenyl)urea]", "IC50": "< 1000 nM and 100 to 1000 nM"},
      {"compound": "O=C(Nc1ccc(Oc2ccnc3ncc(=O)[nH]c23)cc1)Nc1cc(C(F)(F)F)ccc1F", "note": "[AA-043, 1-(2-fluoro-5-(trifluoromethyl)phenyl)-3-(4-(2-oxo-1,2-dihydropyrido[2,3-b]pyrazin-8-yloxy)phenyl)urea]", "IC50": "100 to 1000 nM"},
      {"compound": "Nc1nc2c(Oc3ccc(NC(=O)Nc4cc(C(F)(F)F)ccc4F)c(F)c3)ccnc2[nH]c1=O", "note": "[AA-044, 1-(4-(2-amino-3-oxo-3,4-dihydropyrido[2,3-b]pyrazin-8-yloxy)-2-fluorophenyl)-3-(2-fluoro-5-(trifluoromethyl)phenyl)urea]", "IC50": "< 100 nM"},
      {"compound": "CSc1cc(Oc2ccnc3ncc(=O)[nH]c23)ccc1NC(=O)Nc1ccc(Cl)c(C(F)(F)F)c1", "note": "[AA-045, 1-(4-chloro-3-(trifluoromethyl)phenyl)-3-(2-(methylthio)-4-(2-oxo-1,2-dihydropyrido[2,3-b]pyrazin-8-yloxy)phenyl)urea]", "IC50": "< 100 nM"},
      {"compound": "CSc1cc(Oc2ccnc3ncc(=O)[nH]c23)ccc1NC(=O)Nc1cc(C(F)(F)F)ccc1F", "note": "[AA-046, 1-(2-fluoro-5-(trifluoromethyl)phenyl)-3-(2-(methylthio)-4-(2-oxo-1,2-dihydropyrido[2,3-b]pyrazin-8-yloxy)phenyl)urea]", "IC50": "< 1000 nM and 100 to 1000 nM"},
      {"compound": "O=C(Nc1ccc(Oc2ccnc3ncc(=O)[nH]c23)cc1F)Nc1cc(C(F)(F)F)ccc1F", "note": "[AA-047]", "IC50": "< 100 nM"},
      {"compound": "O=C(Nc1ccc(Cl)c(C(F)(F)F)c1)Nc1ccc(Oc2ccnc3ncc(=O)[nH]c23)cc1F", "note": "[AA-048, 1-(4-Chloro-3-(trifluoromethyl)phenyl)-3-(2-fluoro-4-(2-oxo-1,2-dihydropyrido[2,3-b]pyrazin-8-yloxy)phenyl)urea]", "IC50": "< 100 nM"},
      {"compound": "Cc1nc2nccc(Oc3ccc(NC(=O)Nc4cc(C(F)(F)F)ccc4F)c(F)c3)c2[nH]c1=O", "note": "[AA-049, 1-(2-fluoro-4-(3-methyl-2-oxo-1,2-dihydropyrido[3,2-b]pyrazin-8-yloxy)phenyl)-3-(2-fluoro-5-(trifluoromethyl)phenyl)urea]", "IC50": "< 1000 nM and 100 to 1000 nM"},
      {"compound": "O=C(Nc1ccc(Oc2ccnc3[nH]c(=O)c(=O)[nH]c23)cc1)Nc1ccc(Cl)c(C(F)(F)F)c1", "note": "[AA-050, 1-(4-chloro-3-(trifluoromethyl)phenyl)-3-(4-(2,3-dioxo-1,2,3,4-tetrahydropyrido[2,3-b]pyrazin-8-yloxy)phenyl)urea]", "IC50": "< 100 nM"},
      {"compound": "CSc1cc(Oc2ccnc3[nH]c(=O)c(=O)[nH]c23)ccc1NC(=O)Nc1ccc(Cl)c(C(F)(F)F)c1", "note": "[AA-051, 1-(4-chloro-3-(trifluoromethyl)phenyl)-3-(4-(2,3-dioxo-1,2,3,4-tetrahydropyrido[2,3-b]pyrazin-8-yloxy)-2-(methylthio)phenyl)urea]", "IC50": "< 100 nM"},
      {"compound": "CSc1cc(Oc2ccnc3[nH]c(=O)c(=O)[nH]c23)ccc1NC(=O)Nc1cc(C(F)(F)F)ccc1F", "note": "[AA-052, 1-(4-(2,3-dioxo-1,2,3,4-tetrahydropyrido[2,3-b]pyrazin-8-yloxy)-2-(methylthio)phenyl)-3-(2-fluoro-5-(trifluoromethyl)phenyl)urea]", "IC50": "< 100 nM"},
      {"compound": "CN1CCN(c2cnc3c(Oc4ccc(NC(=O)Nc5cc(C(C)(C)C)nn5-c5ccccc5)c(F)c4)ccnc3n2)CC1", "note": "[AA-053, 1-(3-Tert-butyl-1-phenyl-1H-pyrazol-5-yl)-3-(2-fluoro-4-(3-(4-methylpiperazin-1-yl)pyrido[2,3-b]pyrazin-8-yloxy)phenyl)urea]", "IC50": "< 1000 nM and 100 to 1000 nM"},
      {"compound": "O=C(Nc1ccc(Oc2ccnc3nc(N4CCOCC4)cnc23)cc1F)Nc1cc(C(F)(F)F)ccc1F", "note": "[AA-054, 1-(2-Fluoro-4-(3-morpholinopyrido[2,3-b]pyrazin-8-yloxy)phenyl)-3-(2-fluoro-5-(trifluoromethyl)phenyl)urea]", "IC50": "< 100 nM"},
      {"compound": "CN1CCN(c2cnc3c(Oc4ccc(NC(=O)Nc5cc(C(F)(F)F)ccc5F)c(F)c4)ccnc3n2)CC1", "note": "[AA-056, 1-(2-Fluoro-4-(3-(4-methylpiperazin-1-yl)pyrido[3,2-b]pyrazin-8-yloxy)phenyl)-3-(2-fluoro-5-(trifluoromethyl)phenyl)urea]", "IC50": "< 1000 nM and 100 to 1000 nM"},
      {"compound": "O=C(Nc1cc(C(F)(F)F)ccc1F)Nc1ccc(Oc2ccnc3[nH]c(=O)c(C(F)(F)F)nc23)c2ccccc12", "note": "[AA-082, 1-(2-fluoro-5-(trifluoromethyl)phenyl)-3-(4-(3-oxo-2-(trifluoromethyl)-3,4-dihydropyrido[2,3-b]pyrazin-8-yloxy)naphthalen-1-yl)urea]", "IC50": "100 to 1000 nM"}
    ]},
    {"tested_on": "WM266.4 melanoma cells", "test": "SRB Cell Proliferation Assay (SRB GI50)", "format": "cell-based", "settings": "Homo sapiens, WM 266-4, 144 h, 6 days growth", "procedure": "Biological Methods —SRB Cell Proliferation Assay (SRB GI50)\nCultures of WM266.4 melanoma cells are routinely cultured in DMEM/10% foetal bovine serum, at 37° C., in 5% CO2 water saturated atmosphere. Cultures are maintained in exponential growth phase by sub-culturing before having become confluent (3-5 day intervals). Single cell suspensions are prepared by harvesting an 80 cm^2 tissue culture flask with 5 mL commercial trypsin EDTA. After 5 minutes, the detached cells are mixed with 5 mL fully complemented culture medium and centrifugally pelleted (1000 rpm for 7 minutes). After aspirating the supernatant, the cell pellet is re-suspended in 10 mL fresh medium and the cells fully disaggregated by drawing the whole volume up/down 5 times through a 19-gauge needle. The concentration of the cells is determined using a haemocytometer (1/10 dilution). A suitable volume to give at least a 2-fold excess for the number of tests being conducted, typically 100-200 mL, is prepared by diluting the cell suspension to 10,000/mL, and 100 μL/well dispensed into 96 well plates using a programmable 8-channel peristaltic pump, giving 1000 cells/well, leaving column 12 blank. The plates are returned to the incubator for 24 hours to allow the cells to re-attach.\nThe compounds being tested are prepared at 20 mM in dimethylsulphoxide. Aliquots (200 μL) are diluted into 20 mL culture medium giving 200 μM, and 10 serial dilutions of 3× performed by transferring 5 mL to 10 mL. Aliquots (100 μL) of each dilution are added to the wells, using an 8-channel pipettor, thus performing a final further 2× dilution, and giving doses ranging from 100 μM to 0.005 μM. Column 11 receives plain culture medium only. Each compound is tested in quadruplicate, each replicate being the average of four wells, and two plates per compound.\nAfter a further 6 days growth, the plates are emptied, and the cells are fixed in 10% trichloroacteic acid for 10 minutes on ice. After thorough rinsing in running tap water, the plates are dried, and stained by adding 50 μL of a solution of 0.1% sulphorhodamine-B in 1% acetic acid, for 10 minutes at room temperature. The stain is poured out and the plates thoroughly rinsed under a stream of 1% acetic acid, thus removing unbound stain, and dried. The bound stain is taken into solution by addition of 150 μL Tris buffer pH 8, followed by 10 minutes on a plate-shaker (approximately 500 rpm). The absorbance at 540 nm in each well (being proportional to the number of cells present) is determined using a plate reader.\nAfter averaging the results in rows A-D and E-H, the blank value (row 12) is subtracted, and results expressed as percentage of the untreated value (row 11). […] The GI50 generated by this procedure is the concentration of the drug that produces a percentage control A540 midway between the saturation, and zero-effect plateaus.", "units": {"GI50": "µM"}, "values": [
      {"compound": "O=C(Nc1cccc(Oc2ccnc3[nH]c(=O)cnc23)c1)Nc1cc(C(F)(F)F)ccc1F", "note": "[AA-007, 1-(2-fluoro-5-(trifluoromethyl)phenyl)-3-(3-(3-oxo-3,4-dihydropyrido[2,3-b]pyrazin-8-yloxy)phenyl)urea]", "GI50": "1 to 10"}
    ]}
  ]
}
